A short description of series [1]: Stability of E6005 and M11 in human dried blood spots. The format is physicochemical. Here is the method:
Stability: Following stability of E6005 and M11 in DBS was assessed at low and high concentrations using LQC and HQC samples (three replicates/concentration): bench-top stability for 7 days at room temperature, long-term frozen stability for 160 days […] below −15° C., and processed sample stability for 85 h at 4° C. To investigate impacts of high humidity on the stability, bench-top stability test was performed at room temperature with relative humidity of ca. 80%-84%. Samples were considered stable when % bias from the nominal concentrations was within ±15%.

Series [2] in a line: Phase 2 study RVT-501-2001, plasma concentrations of RVT-501 and M11. The format is in vivo, human. From the text:
During the treatment period, subjects applied RVT-501 ointment or vehicle to affected areas twice daily (BID) for 28 days. Subjects returned to the clinic at Day 4 for evaluation, and again at Weeks 1, 2, 3, and 4 for safety and efficacy assessments. Pharmacokinetic samples were collected at Weeks 1 and 4. On clinic visit days (except on the Day 4 visit), subjects applied study drug on-site while under the supervision of site personnel, after efficacy assessments had been completed.
Statistical Methods: Efficacy Analyses: A sample size and power sensitivity analysis was conducted for the efficacy endpoints. Assuming an effect size (defined as difference of mean change from baseline EASI score between treatment groups relative to pooled standard deviation) of 0.7, a sample size of 50 subjects in an active arm and 50 subjects in the combined placebo will provide 93% power at an alpha level of 0.05 (2-sided), based on a 2-sided t-test. The sample size will also allow a difference of 33% between placebo and active treatment in a responder endpoint to be detected with 90% power and a 0.05 significance level assuming the proportion of responders in the placebo group is <=20%. Efficacy endpoints will be summarized and listed by treatment for each age group and both age groups combined; The between-treatment comparisons (active vs placebo and between active dose groups) for continuous efficacy variables will be performed using an analysis of covariance (ANCOVA) model. The between treatment comparisons for the proportion of responders will be compared using a CMH or Chi-square test. Safety Analyses: Adverse events will be mapped to a Medical Dictionary for Regulatory Activities (MedDRA). Treatment emergent adverse events will be summarized by treatment, preferred term and system organ classification. Descriptive summaries of vital signs, ECG parameters, and clinical laboratory results will be presented by study visit and treatment group. Pharmacokinetic Analyses: RVT-501 and M11 plasma concentrations will be listed by subject, treatment, and time; and will be summarized by treatment and time. The number and percent of subjects with a measurable concentration of either analyte at each time point and any time during the study will be provided.
Analysis Populations: Four analysis populations were used for this study. The Safety population, consisting of all subjects enrolled into the study who received study drug, was used for the safety analyses. The intent-to-treat (ITT) population, defined as all subjects randomized to treatment, was the primary population used for the efficacy analyses. The per protocol (PP) population included subjects who applied at least 50% of the doses. The PP population was used for confirmatory analysis of the efficacy variables. The PK population included all subjects who underwent plasma PK sampling and had at least one evaluable PK sample (a concentration reported as below the lower limit of quantitation (LLQ) of the assay was considered an evaluable PK sample).
Pharmacokinetics: Blood samples for PK analysis of RVT-501 and the M11 metabolite will be collected at the time points indicated in Table 1. The actual date and time of each blood sample collection will be recorded as well as the date and time of the last dose of study mediation. The timing of PK samples may be altered and/or PK samples may be obtained at additional time points to ensure thorough PK monitoring.
Pharmacokinetics summary: PK samples were collected pre-dose at Weeks 1 and 4, and 2-4 hrs post-dose at Week 4. […] Three patients had detectable M11 exposure with the highest value at 1.60 ng/mL.

Series [3] concerns adults with mild to moderate AD. Conditions: 0.2% ointment BID, 4 weeks; cited from earlier work.
Series [4] deals with pediatric subjects with mild to moderate atopic dermatitis. Nature of the series: Phase 2 study in pediatric patients (Example 6), safety (adverse events). The format is in vivo, human. From the text: Safety Endpoint: Frequency and severity of adverse events (AE; local and systemic).
Analysis Populations: All subjects enrolled in the study who had at least one application of investigational product were included in the Safety Set (SS). This was the population for the safety analyses.
Safety Analyses: The number and proportion of subjects with AEs were summarized by treatment, system organ classification, and preferred term for all adverse events, all adverse events considered by the investigator to be related to study drug, all serious adverse events (SAE), all Common Terminology Criteria for Adverse Events (CTCAE) Grade 3 or higher AEs, and all adverse events leading to study discontinuation. Summaries of AEs were presented separately for the Double-Blind and Open-Label Extension Phases.
Laboratory data were analyzed using descriptive summary statistics and changes from baseline. Categorical safety data were analyzed using frequency tables and, if applicable, shift tables. Vital signs were listed by subjects and summarized by treatment.

In series [5] the test system is Japanese male subjects with AD. Conditions: ointment 0.01% to 0.2%; cited from earlier work.
For series [6] the following is noted: single dermal application; stripped skin; non-fasted male rats; cited from earlier work.
Series [7] deals with pediatric subjects aged 2 to 15 years with mild to moderate AD. Conditions: 0.05% and 0.2% ointment for 2 weeks; cited from earlier work.
The subject of series [8] is healthy Japanese male subjects. Particulars: cited from earlier work.

Regarding `CNc1nc(-c2cccc(NC(=O)c3ccc(C(=O)O)cc3)c2)c2cc(OC)c(OC)cc2n1` [Formulation M11, 4-((3-(6,7-dimethoxy-2-(methylamino)quinazolin-4-yl)phenyl)carbamoyl)benzoic acid], the “% bias” value is on record as 2.5% in series [1] (Bench-top, after 7 days at RT, HQC (160 ng/mL)); 6.0% in series [1] (Bench-top, after 7 days at RT, LQC (3 ng/mL)); 0.2% in series [1] (In processed samples, after 85 h at 4° C., HQC (160 ng/mL)); 5.9% in series [1] (In processed samples, after 85 h at 4° C., LQC (1 ng/mL)); 9.4% in series [1] (Long-term, after 160 days at RT, HQC (160 ng/mL)); 0.3% in series [1] (Long-term, after 160 days at RT, LQC (3 ng/mL)). Further, the “% bias” value in series [1] (Long-term, after 160 days below −15° C., HQC (160 ng/mL)) was −1.3%; in series [1] (Long-term, after 160 days below −15° C., LQC (3 ng/mL)), −1.3%; in series [1] (Under high humidity, after 7 days at humidity 80-84%, HQC (160 ng/mL)), −12.5%; in series [1] (Under high humidity, after 7 days at humidity 80-84%, LQC (3 ng/mL)), −2.3%. Further, in series [2] (RVT-501 0.2% group, Week 1 pre-dose), the “plasma M11 concentration, Subject 18014 (adolescent)” value was 1.27 ng/mL. Also, the “plasma M11 concentration, Subject 03005 (adult)” value in series [2] (RVT-501 0.5% group, Week 1 pre-dose) amounted to 1.60 ng/mL. In addition, the “plasma M11 concentration, Subject 09003 (adult)” value in series [2] (RVT-501 0.5% group, Week 4 pre-dose) came to 1.09 ng/mL. Besides, the “highest plasma concentration of M11 metabolite” value in series [2] (all groups, Weeks 1 and 4) is recorded as 1.60 ng/mL.

Take `CNc1nc(-c2cccc(NC(=O)c3ccc(C(=O)OC)cc3)c2)c2cc(OC)c(OC)cc2n1` [RVT-501, methyl N-[3-(6,7-dimethoxy-2-methylaminoquinazolin-4-yl)phenyl]terephthalamic acid]: in series [3], the tolerability result was “tolerability was good”. For the same molecule, the “subjects with study-drug-related mild application site pruritus” value in series [4] (Double-Blind Phase) was 6.1%. In addition, in series [4] (human, in vivo), the safety and tolerability entry was “generally safe and well tolerated”. Also, in series [4] (human, in vivo), the “subjects who experienced SAE (all deemed not related)” value was “two”. Moreover, the “skin irritation, adverse events, laboratory values, vital signs, ECG, ophthalmological findings” value in series [5] and in series [8] (ointment 0.01% to 0.2%) was “no clinically-significant findings” throughout. In series [2] (RVT-501 0.2% group, Week 4), the “highest plasma concentration of RVT-501” value is given as 1.23 ng/mL. In addition, the “plasma RVT-501 concentration, Subject 18014 (adolescent)” value is reported as 1.20 ng/mL in series [2] (RVT-501 0.2% group, Week 4, 2 hours post-dose) and 1.23 ng/mL in series [2] (RVT-501 0.2% group, Week 4 pre-dose). Besides, the “plasma concentration of RVT-501” value in series [2] (Week 1 pre-dose, all treatment groups, LLQ) was below 1.00 ng/mL. In addition, the systemic absorption result in series [2] (topical 0.2% and 0.5% BID) was “minimal to no systemic absorption”. In addition, the “radiolabelled RVT-501 in the skin application site 24 hours after administration, relative to levels after 30 minutes” value in series [6] was 75%. Besides, the “adverse events attributable to the investigational product” value in series [7] is on record as “no adverse events considered attributable to the investigational product”. Also, in series [8] (0.01%-0.2% ointment QD or BID up to 11 days, patch/photopatch), the “skin or systemic AEs” value is on record as “No significant skin or systemic AEs”.

Source of the values: patent publication US20210093637A1, “TOPICAL OINTMENT FORMULATIONS OF PDE-4 INHIBITOR AND THEIR USE IN TREATING SKIN CONDITIONS” (Dermavant Sciences GmbH, priority 2017, published 2021).
